Results: patent publication US20100160209A1, “Composition and Method for Increasing Cell Permeability of a Compound” (SmithKline Beecham Corporation, priority 2006, published 2010)
Ends that are not written are not given here. Peptide text beside a SMILES is read from it. * marks the point of attachment. Boc = CC(C)(C)OC(=O)*; OSu = O=C1CCC(=O)N1O*

Assays:
[1] = solubility in aqueous solutions; type: physicochemical; settings: for CPS-Cys particularly in slightly acidic pH
Text: (§1) Initial synthesis was of the 11-mer CPS peptide in which its C-terminal end was an N-hydroxysuccinimide (NHS) ester. This CPS-OSu peptide was expected to be highly reactive to the amine groups of human insulin and thus facilitate the conjugation reactions between CPS and Insulin. […] As a result, this CPS-OSu activated ester was cyclized via an internal amide bond. To overcome this side-reaction, a derivative of the CPS-OSu peptide in which all three amine groups of this peptide were protected by a Boc group (tert-Butyloxycarbonyl) was also made.
(§2) The 12-mer CPS-Cys peptide Sequence of CPS-Cys Peptide: K-L-K-L-A-L-A-L-A-L-A-C (Seq ID no. 2) was synthesized by conventional solid-phase peptide synthesis methodology. Standard synthesis protocols based on Fmoc chemistry were used. After synthesis, the crude peptides were cleaved from the solid support and purified by C18 reverse-phase HPLC eluted with acetonitrile aqueous buffers. The purified peptide was characterized by analytical HPLC analysis (FIG. 2, top panel) and mass spectrometry analysis (FIG. 2a, bottom panel, calculated MW=1227.6 Da and measured MW (MH+)=1227.9 Da).

stability of the peptide = type: physicochemical; settings: CPS-OSu: reacts with its own amine groups, cyclized via internal amide bond
Text: as §1, §2

CCK-releasing cells = settings: "is said to elicit"; assay of WO 01/41812; cited from earlier work

Row | solubility in aqueous solutions [1] | stability of the peptide (stability of the peptide) | Compound | increase in CCK secretion (CCK-releasing cells) [%]
1 | poor solubility |  | CC(C)C[C@H](NC(=O)[C@H](C)NC(=O)[C@H](CC(C)C)NC(=O)[C@H](CCCCNC(=O)OC(C)(C)C)NC(=O)[C@H](CC(C)C)NC(=O)[C@H](CCCCNC(=O)OC(C)(C)C)NC(=O)OC(C)(C)C)C(=O)N[C@@H](C)C(=O)N[C@@H](CC(C)C)C(=O)N[C@@H](C)C(=O)N[C@@H](CC(C)C)C(=O)N[C@@H](C)C(=O)ON1C(=O)CCC1=O [amine-protected peptide] (Boc-K(Boc)LK(Boc)LALALALA-OSu) | 
2 | good solubility | stable | KLKLALALALAC [CPS-Cys peptide, K-L-K-L-A-L-A-L-A-L-A-C] | 
3 |  |  | STFWAYQPDGDNDPTDYQKYEHTSSPSQLLAPGDYPCVIEV (listed as Homo sapiens) [Native LCRF, luminal cholecystokinin releasing factor] | ~300
